Test system: Tumorart P 388 (Leukämie)
Assay: P 388 leukemia survival test in mice (NCI protocol 1200)
Format: in vivo, Mäusen
Settings: i.p., 9-day treatment; for Verlängerungsrate T/C: P 388 i.p. 10^6 Zellen/Maus, untreated mean survival 10 days; for Zahl der Tiere aus jeweils einer Gruppe von 6 die 30 Tage überlebten: value in brackets, group of 6
Text: Die nachfolgenden Versuche wurden durchgeführt nach Tcstvorschriften des National Canccr Institute Bethesda, Maryland 200014, veröffentlicht in "Cancer Chemotherany Renorts" Part. 3, Sept. 1972, Vol. 3, Nr. 2. Als Wirksubstanz wurde Triglycidylamin sowie 3-Chlorpropyl-diglycidylamin des vorstehenden Beisniels 4 verwendet. Die Substanz wurde als wäßrige 1 %ige Injektionslösung unmittelbar vor der Applikation frisch hergestellt.
Bei Mäusen wurde gemäß Protokoll 1200 (S. 91 c) die Tumorart P 388 (Leukämie) i.p. mit 10^6 Zellen/Maus gesetzt. Die unbehandelten Tiere hatten eine mittlere Überlebensdauer von 10 Tagen.
Mit den behandelten Testtieren, die einer 9-tägigen i.p. Behandlung mit der in Tabelle 1 angesehenen Dosis unterworfen wurden, wurde eine signifikante Verlängerung der Lebensdauer gegenüber der mittleren Überlebensdauer der nicht mit dem Wirkstoff behandelten Tiere erzielt. Die Verlängerunzstate T/C in Abhängigkeit von der Dosierung des Wirkstoffes ist in der Tabelle 1 zusammengestellt. Die Werte in Klammern bedeuten die Zahl der Tiere aus jeweils einer Gruppe von 6 die 30 Tage üherlebten.

For `ClCCCN(CC1CO1)CC1CO1` (stereo not drawn) [3-Chlorpropyl-diglycidylamin], the “Verlängerungsrate T/C” value (Dosis 1,87 mg/kg) was 179%, the “Verlängerungsrate T/C” value (Dosis 3,75 mg/kg) was 181% and the “Verlängerungsrate T/C” value (Dosis 7,50 mg/kg) was 303%. For the same compound, the “Zahl der Tiere aus jeweils einer Gruppe von 6 die 30 Tage überlebten” value (Dosis 7,50 mg/kg) was 3.
With `C1OC1CN(CC1CO1)CC1CO1` (stereo not drawn) [Triglycidylamin] the “Verlängerungsrate T/C” value (Dosis 0,48 mg/kg) was 148%, the “Verlängerungsrate T/C” value (Dosis 0,97 mg/kg) was 174% and the “Verlängerungsrate T/C” value (Dosis 1,87 mg/kg) was 252%. The “Verlängerungsrate T/C” value (Dosis 3,75 mg/kg) was 303% and the “Zahl der Tiere aus jeweils einer Gruppe von 6 die 30 Tage überlebten” value (Dosis 3,75 mg/kg) was 6.

— patent EP0199247A2, “Cytostatic active medicine containing glycidyl amines” (priority 1985, dated 1986)
